In article PMC3519852, “Non-Traditional Antibacterial Screening Approaches for the Identification of Novel Inhibitors of the Glyoxylate Shunt in Gram-Negative Pathogens” (PLoS ONE, 2012):

Key:
MS = target: T1, MS (Pseudomonas aeruginosa, UniProt Q9I636); test: DTNB detection of coenzyme A at […] nm; assay type: biochemical
T1 construct: gene glcB

ICL = target: T2, ICL (Pseudomonas aeruginosa, UniProt Q9I0K4); test: absorbance at […] nm, phenylhydrazine assay; assay type: biochemical
T2 construct: gene PA2634
T2 sequence (Q9I0K4 1-531): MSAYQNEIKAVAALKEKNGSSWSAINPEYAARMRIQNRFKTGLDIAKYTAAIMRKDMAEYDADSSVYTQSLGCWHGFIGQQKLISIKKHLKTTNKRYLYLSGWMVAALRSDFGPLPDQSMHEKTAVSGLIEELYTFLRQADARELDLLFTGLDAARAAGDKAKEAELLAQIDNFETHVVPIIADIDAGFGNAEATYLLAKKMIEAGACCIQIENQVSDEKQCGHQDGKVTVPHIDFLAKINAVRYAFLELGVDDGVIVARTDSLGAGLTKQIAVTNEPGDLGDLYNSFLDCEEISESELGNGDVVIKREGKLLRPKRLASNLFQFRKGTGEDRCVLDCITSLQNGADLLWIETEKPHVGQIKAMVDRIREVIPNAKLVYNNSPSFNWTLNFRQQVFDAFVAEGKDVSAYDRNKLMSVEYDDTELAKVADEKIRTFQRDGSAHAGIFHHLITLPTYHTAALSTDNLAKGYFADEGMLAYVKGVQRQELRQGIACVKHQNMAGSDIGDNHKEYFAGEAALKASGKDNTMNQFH

T1 sequence (Q9I636 whole entry): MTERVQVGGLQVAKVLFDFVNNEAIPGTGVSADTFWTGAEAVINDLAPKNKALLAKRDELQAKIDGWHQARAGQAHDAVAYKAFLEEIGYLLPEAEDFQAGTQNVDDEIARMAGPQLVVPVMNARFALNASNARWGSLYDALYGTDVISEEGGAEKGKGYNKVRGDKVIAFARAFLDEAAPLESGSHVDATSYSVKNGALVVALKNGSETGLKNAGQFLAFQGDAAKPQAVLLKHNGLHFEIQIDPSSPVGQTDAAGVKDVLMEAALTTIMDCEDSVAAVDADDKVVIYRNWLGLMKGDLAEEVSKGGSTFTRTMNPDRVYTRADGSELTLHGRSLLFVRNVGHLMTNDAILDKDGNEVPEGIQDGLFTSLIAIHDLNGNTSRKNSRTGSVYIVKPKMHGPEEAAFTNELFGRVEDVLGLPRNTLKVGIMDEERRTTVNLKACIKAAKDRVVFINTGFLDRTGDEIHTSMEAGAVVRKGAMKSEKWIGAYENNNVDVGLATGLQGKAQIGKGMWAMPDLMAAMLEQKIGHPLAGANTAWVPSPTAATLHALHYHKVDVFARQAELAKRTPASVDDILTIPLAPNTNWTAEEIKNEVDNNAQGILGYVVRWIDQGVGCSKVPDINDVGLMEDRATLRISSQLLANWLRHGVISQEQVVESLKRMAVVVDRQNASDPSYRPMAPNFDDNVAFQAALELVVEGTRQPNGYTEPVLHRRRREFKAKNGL

SMILES | IC50 (MS) [nM] | IC50 (ICL) [nM]
COc1ccccc1N1CCN(CCCNC(=O)C(Cc2ccc(F)c(F)c2)C(C)=O)CC1 (racemic) [compound 2, Compound 2] | 1770 | 240
Nc1nnc(SCc2ccc(O)c3ncccc23)s1 [compound 1, Compound 1] | 180 | 690
CC(C)(C)OC(=O)/N=C(\NC(=O)OC(C)(C)C)Nc1cc(Cl)ccn1 [compound 3, Compound 3] | 5300 | 170
CC(C)(C)OC(=O)NC(=Nc1cc(CCC(=O)O)ccn1)NC(=O)OC(C)(C)C [compound 4, Compound 4] | 1290 | 30
N=C(N)Nc1cccc2ncccc12 [compound 7, Compound 7] | 6930 | 190
N=C(N)Nc1ccc2nn[nH]c2c1 [compound 8, Compound 8] | 8880 | 370
